From US9096581B2, “Fluoroethyl thiamine or salts thereof and application thereof in preparation of anticoccidial drugs” (GUANGZHOU ORIGMOL FEED-ADDITIVE CO., LTD, priority 2012, dated 2015)
Structures can show the parent of a compound that is named as a salt.

System: Eimeria tenella GD strains
Experiment: Anticoccidial dose research in chickens infected with Eimeria tenella GD (Embodiment 2)
Type: in vivo
Set-up: oocyst value: scale not given here
Settings: for number of oocysts in cecum / average weight gain: 7th day; for lesion value: cecum, 7 days after infecting, scale 0-40; for survival rate / average weight gain / bloody feces scoring: chickens; for bloody feces scoring: 5 days after infecting, score 0-4; for oocyst value: converted per Table 2; for relative weight gain rate: vs non-infected non-drug control
Text: 1-day-old Lingnan yellow chickens, purchased from Poultry Research Unit, Bureau of Animal Husbandry, Guangdong Academy of Agricultural Sciences, bred under coccidium-free environment, and subjected to experiment after no coccidium oocyst is found in feces through microscopic examination when the chickens are 14 days old. Perfect compound feed for chickens: prepared by Huizhou Yuantai Feed Co. Ltd., and containing no antibacterial or anticoccidial additive.
Eimeria tenella GD strains, having no resistance to various anticoccidial drugs. Breeding and amplifying in chickens before the experiment, collecting fresh oocysts, sporulating, and preserving at 4° C. for later use.
Weighing the 14-day-old experiment chickens one by one, rejecting emaciated or overweighted chickens, selecting healthy chickens of which the individual body weight difference is within 20 g, and dividing to 9 groups with 20 chickens in each group. Groups 1 and 2 are respectively a non-drug-applied and non-coccidium-killed control group and a coccidium-infected and non-drug-applied control group, and Groups 3-9 are experiment groups applied with different doses of the fluoroethyl thiamine hydrochloride according to Table 1. Adding different doses of drugs to feeds and mixing uniformly on the day of experiment grouping, enabling the chickens to freely take in the feeds, and feeding the chickens until the experiment ends.
Except the non-coccidium-infected and non-drug-applied control group (Group 1), giving each experiment chicken in each experiment group with 2.5×10^5 eimeria tenella sporulated oocysts via the crop on the next day of the grouping day. During experiment, observing and recording the spirit, appetite, bloody feces situation, death count and the like of the chickens every day. Performing bloody feces scoring on the chickens in each group 5 days after infecting. On the 7th day, respectively weighing all the chickens in each group, then autopsying them, observing cecum lesions and counting the oocysts in the cecum.
2.3.1 Bloody feces scoring: according to the method in the references: 0 point, no bloody feces, 1 point, less than 25% of bloody feces; 2 points, 25%-50% of bloody feces; 3 points, 50%-75% of bloody feces; 4 points, more than 75% of bloody feces.
2.3.2 Weight gain: respectively weighing each chicken when the experiment starts and ends, and calculating the average weight gain and relative weight gain rate. The relative weight gain rate=(the average weight gain in the experiment groups/the average weight gain in the non-infected and non-drug-applied control group)×100%.
2.3.3 Survival rate: recording the number of dead chickens of each group, autopsying to determine the death cause, and calculating the survival rate. The survival rate=(the total number of the chickens in the experiment groups−the number of the chickens dying of coccidium infection during the experiment)/the total number of the chickens in the experiment groups×100%.
2.3.4 Lesion standard: killing the chickens 7 days after infecting, performing cecum lesion scoring according to the lesion scoring of Johnson and Reid (1970), and converting lesion points to lesion values.
lesion scoring (taking the serious side if the two sides of the cecum are inconsistent in lesion): 0 point, no macroscopic lesion; 1 point, a small amount of scattered petechiae on the cecum wall, no incrassation on the cecum wall, normal contents; 2 points, a large amount of lesion, obviously bloody contents in the cecum, slight incrassation on the cecum wall, normal contents; 3 points, a large a mount of blood or intestinal core (blood clot or gray caseous banana-shaped lumps) in the cecum, obvious incrassation on the cecum wall, a small amount of feces in the cecum; 4 points, cecum swelling caused by filling of a large amount of blood or intestinal core with or without feces in the intestinal core. Recording the dead chicken lesion as 4 points as well. […]

CCc1ncc(C[n+]2csc(CCF)c2C)c(N)n1 [fluoroethyl thiamine hydrochloride, 3-[(4-amino-2-ethyl-5-pyrimidyl)-methylene]-5-(2-fluoroethyl)-4-methyl thiazole chloride hydrochloride]
anticoccidial index (ACI) (10 ppm in feed): 136.7 | number of oocysts in cecum (10 ppm in feed): 2.965 ×10^6/chicken | lesion value (10 ppm in feed): 24.5 | survival rate (10 ppm in feed): 90% | average weight gain (10 ppm in feed): 135.7 g/chicken | bloody feces scoring (10 ppm in feed): 2 | oocyst value (10 ppm in feed): 10 | relative weight gain rate (10 ppm in feed): 81.2% | anticoccidial index (ACI) (25 ppm in feed): 144.6 | number of oocysts in cecum (25 ppm in feed): 2.325 ×10^6/chicken | lesion value (25 ppm in feed): 18.8 | survival rate (25 ppm in feed): 90% | average weight gain (25 ppm in feed): 139.5 g/chicken | bloody feces scoring (25 ppm in feed): 2 | oocyst value (25 ppm in feed): 10 | relative weight gain rate (25 ppm in feed): 83.4% | anticoccidial index (ACI) (50 ppm in feed): 165.5 | drug efficiency level judged from the anticoccidial index (50 ppm in feed): intermediate-efficiency anticoccidial drugs (intermediate-efficiency anticoccidial drugs if 160≦ACI<180) | number of oocysts in cecum (50 ppm in feed): 3.65 ×10^6/chicken | lesion value (50 ppm in feed): 11.2 | survival rate (50 ppm in feed): 100% | average weight gain (50 ppm in feed): 144.9 g/chicken | bloody feces scoring (50 ppm in feed): 1 | oocyst value (50 ppm in feed): 10 | relative weight gain rate (50 ppm in feed): 86.7% | anticoccidial index (ACI) (75 ppm in feed): 176.4 | drug efficiency level judged from the anticoccidial index (75 ppm in feed): intermediate-efficiency anticoccidial drugs (intermediate-efficiency anticoccidial drugs if 160≦ACI<180) | number of oocysts in cecum (75 ppm in feed): 2.15 ×10^6/chicken | lesion value (75 ppm in feed): 8.5 | survival rate (75 ppm in feed): 100% | average weight gain (75 ppm in feed): 158.7 g/chicken | bloody feces scoring (75 ppm in feed): 0 | oocyst value (75 ppm in feed): 10 | relative weight gain rate (75 ppm in feed): 94.9% | anticoccidial index (ACI) (100 ppm in feed): 195.9 | drug efficiency level judged from the anticoccidial index (100 ppm in feed): high-efficiency anticoccidial drugs (high-efficiency anticoccidial drugs if ACI≧180) | number of oocysts in cecum (100 ppm in feed): 0.47 ×10^6/chicken | lesion value (100 ppm in feed): 0 | survival rate (100 ppm in feed): 100% | average weight gain (100 ppm in feed): 162.0 g/chicken | bloody feces scoring (100 ppm in feed): 0 | oocyst value (100 ppm in feed): 1 | relative weight gain rate (100 ppm in feed): 96.9% | anticoccidial index (ACI) (150 ppm in feed): 201.4 | drug efficiency level judged from the anticoccidial index (150 ppm in feed): high-efficiency anticoccidial drugs (high-efficiency anticoccidial drugs if ACI≧180) | number of oocysts in cecum (150 ppm in feed): 0.16 ×10^6/chicken | lesion value (150 ppm in feed): 0 | survival rate (150 ppm in feed): 100% | average weight gain (150 ppm in feed): 171.2 g/chicken | bloody feces scoring (150 ppm in feed): 0 | oocyst value (150 ppm in feed): 1 | relative weight gain rate (150 ppm in feed): 102.4% | anticoccidial index (ACI) (200 ppm in feed): 200.8 | drug efficiency level judged from the anticoccidial index (200 ppm in feed): high-efficiency anticoccidial drugs (high-efficiency anticoccidial drugs if ACI≧180) | number of oocysts in cecum (200 ppm in feed): 0 ×10^6/chicken | lesion value (200 ppm in feed): 0 | survival rate (200 ppm in feed): 100% | average weight gain (200 ppm in feed): 168.5 g/chicken | bloody feces scoring (200 ppm in feed): 0 | oocyst value (200 ppm in feed): 0 | relative weight gain rate (200 ppm in feed): 100.8%
